Reference: article PMC7496931, “Activation of Sirtuin 2 Inhibitors Employing Photoswitchable Geometry and Aqueous Solubility” (Chemmedchem, 2020)
Several values for one entry are separate records, joined by “and”; a condition that tells them apart may be missing. Equal values may be shown once. Read-outs that look alike come from different tables or passages of the source.

Assays:
Type in all cases: biochemical
[1] = biological target: T1, Sirt2 (Homo sapiens, UniProt Q8IXJ6); test: Fluorescence-based ZMAL deacetylase activity assay, Sirt2
T1 construct: Expression and purification of Sirt1_133−747, Sirt2_56−356, and Sirt3_118−395 was carried out as described previously; made in house
T1 sequence (Q8IXJ6 56-356): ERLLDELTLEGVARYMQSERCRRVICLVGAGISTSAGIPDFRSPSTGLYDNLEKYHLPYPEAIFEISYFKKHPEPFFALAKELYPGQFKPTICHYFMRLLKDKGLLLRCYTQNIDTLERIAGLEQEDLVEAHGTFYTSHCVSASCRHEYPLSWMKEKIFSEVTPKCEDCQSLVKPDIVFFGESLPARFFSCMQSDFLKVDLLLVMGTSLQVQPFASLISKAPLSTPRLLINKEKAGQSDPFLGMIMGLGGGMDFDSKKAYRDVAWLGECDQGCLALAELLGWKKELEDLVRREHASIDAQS
Experimental: (§1) The effect of the compounds on deacetylase activity of three human sirtuin isotypes (Sirt1–3) was investigated by a homogeneous fluorescence‐based assay, using (Z)‐Lys(acetyl)‐AMC (ZMAL) as substrate. In order to determine the impact of photoisomerization, the respective compounds were irradiated (365 nm, 5 min) in DMSO prior to incubation in the enzyme assay mixture. The results of the irradiated probes were finally compared to non‐irradiated measurements.
(§2) Cloning, expression and purification of recombinant proteins: Expression and purification of Sirt1_133−747, Sirt2_56−356, and Sirt3_118−395 was carried out as described previously.27 Identity and purity were verified by SDS‐PAGE.
(§3) Fluorescence‐based activity assay: The inhibitory effect of compounds on Sirt1–3 was detected via a previously reported fluorescence‐based assay.29 The synthetic substrate (Z)‐Lys(acetyl)‐AMC (ZMAL) is deacetylated by sirtuins, followed by tryptic digestion and thereby release of 7‐aminomethylcoumarin, leading to a fluorescent readout. Inhibition was determined by comparing percentage substrate conversion to a DMSO control after subtraction of the blank fluorescence signal. All compounds were tested at 100 or 50 μM and 10 μM respectively. […] IC50 values were calculated with OriginPro 9.0 G using a non‐linear regression to fit the dose response curve (Figure S6). An enzyme‐free blank control and a 100 % conversion control using AMC instead of ZMAL were measured as well. Inhibition measurements were performed in biological duplicates for all compounds. […]
(§4) Fluorescence-Based Activity Assay (ZMAL-Assay)
(§5) The influence of the synthesized compounds on the deacetylase activity of the class I sirtuins Sirt1–3 was determined in a homogenous fluorescence-based enzyme assay, using the artificial substrate Z-(Ac)Lys-AMC (ZMAL). ZMAL is processed by sirtuins yielding Z-Lys-AMC.
(§6) The latter is subsequently cleaved by tryptic digestion, releasing 7-amino-4-methylcoumarin (AMC), excitation of which leads to a fluorescent read out (λex=390 nm; λem=460 nm). Instead, […]
(§7) contribute to the fluorescence signal. Therefore, the fluorescence intensity is proportional to the activity of the respective sirtuin.
(§8) After subtraction of the blank fluorescence signal (without enzyme) from the signal of the respective probe, the residual signal intensity is related to a 100 % conversion control (AMC), […]
(§9) yielding the percentage substrate conversion. Comparison of the determined substrate conversion with a no-inhibition DMSO control yields the percentage inhibition at the respective […]
(§10) For determination of IC50, inhibitory activity of the respective compound was determined at 8 to 10 distinct concentrations. The measured values were analysed by a non-linear fit to the dose-response curve using a four parameter logistic model (Figure S6):
(§11) Figure S6: Non-linear regression of the dose-response curves of compounds 15c and 15f at the thermal equilibrium (∆, black) and after 5 minutes of 365 nm irradiation (red). […]
(§12) A maximal polarization control using just DMSO and a minimal polarization control using 1 µL of the 400 µM solution of 22 instead of inhibitor were performed as well as a blank control containing 1 µL of DMSO in 19 µL assay buffer. The mixture was incubated 10 min at 37 °C

[2] = biological target: T2, Sirt1 (Homo sapiens, UniProt Q96EB6); test: Fluorescence-based ZMAL deacetylase activity assay, Sirt1
T2 construct: Expression and purification of Sirt1_133−747, Sirt2_56−356, and Sirt3_118−395 was carried out as described previously; made in house
T2 sequence (Q96EB6 133-747): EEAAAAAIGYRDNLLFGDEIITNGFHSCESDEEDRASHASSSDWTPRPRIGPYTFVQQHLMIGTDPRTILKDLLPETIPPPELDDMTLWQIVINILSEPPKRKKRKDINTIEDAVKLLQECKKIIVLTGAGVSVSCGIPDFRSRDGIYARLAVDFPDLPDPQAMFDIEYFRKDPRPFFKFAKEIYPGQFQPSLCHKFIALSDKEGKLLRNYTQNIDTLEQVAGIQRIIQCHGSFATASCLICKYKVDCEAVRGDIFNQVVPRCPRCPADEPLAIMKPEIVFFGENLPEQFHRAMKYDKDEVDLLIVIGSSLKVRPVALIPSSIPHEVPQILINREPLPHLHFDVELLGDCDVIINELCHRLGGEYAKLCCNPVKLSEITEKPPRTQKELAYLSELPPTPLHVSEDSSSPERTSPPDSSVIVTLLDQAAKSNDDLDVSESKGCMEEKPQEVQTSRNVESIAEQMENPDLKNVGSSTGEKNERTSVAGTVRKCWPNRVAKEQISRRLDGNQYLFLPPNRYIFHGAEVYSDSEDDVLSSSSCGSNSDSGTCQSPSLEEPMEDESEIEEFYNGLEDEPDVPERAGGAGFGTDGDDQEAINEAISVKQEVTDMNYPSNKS
Experimental: as §1, §2, §3, §4, §5, §6, §7, §8, §9, §10, §11
A maximal polarization control using just DMSO and a minimal polarization control using 1 µL of the 400 µM solution of 22 instead of inhibitor were performed as well as a blank control containing 1 µL of DMSO in 19 µL assay buffer. The mixture was incubated 10 min at 37 °C […]
(1 picture or pasted object on this page, not shown here)

[3] = biological target: T3, Sirt3 (Homo sapiens, UniProt Q9NTG7); test: Fluorescence-based ZMAL deacetylase activity assay, Sirt3; design: key to Sirt3 inhibition Δ (class) / Sirt3 inhibition PSS [365 nm] (class): n.i.: no inhibition detected (<30 % @ 100 μM); u.i.: unspecific interactions
T3 construct: Expression and purification of Sirt1_133−747, Sirt2_56−356, and Sirt3_118−395 was carried out as described previously; made in house
T3 sequence (Q9NTG7 118-395): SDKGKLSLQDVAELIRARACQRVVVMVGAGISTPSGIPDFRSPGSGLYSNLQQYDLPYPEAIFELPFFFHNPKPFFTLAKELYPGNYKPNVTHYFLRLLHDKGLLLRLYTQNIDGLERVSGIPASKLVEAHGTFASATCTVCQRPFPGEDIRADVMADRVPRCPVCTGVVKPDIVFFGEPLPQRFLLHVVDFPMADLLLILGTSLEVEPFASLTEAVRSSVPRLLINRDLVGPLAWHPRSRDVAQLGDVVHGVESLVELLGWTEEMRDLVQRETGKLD
Experimental: as §1, §2, §3, §4, §5, §6, §7, §8, §9, §10, §11, §12

[4] = PSS after 5 min UV irradiation (365 nm), read-out: Sirt2 inhibition PSS [365 nm], percent inhibition (converted)
[5] = thermal equilibrium (Δ), read-out: Sirt2 inhibition Δ, percent inhibition (converted)
[6] = thermal equilibrium (Δ), read-out: Sirt2 inhibition Δ, percent inhibition
[7] = PSS after 5 min UV irradiation (365 nm), read-out: Sirt1 inhibition PSS [365 nm] (class)
[8] = thermal equilibrium (Δ), read-out: Sirt1 inhibition Δ (class)
[9] = PSS after 5 min UV irradiation (365 nm), read-out: Sirt3 inhibition PSS [365 nm], percent inhibition
[10] = thermal equilibrium (Δ), read-out: Sirt3 inhibition Δ, percent inhibition
[11] = PSS after 5 min UV irradiation (365 nm), read-out: Sirt2 inhibition PSS [365 nm], IC50
[12] = thermal equilibrium (Δ), read-out: Sirt2 inhibition Δ, IC50
[13] = PSS after 5 min UV irradiation (365 nm)
[14] = PSS after 5 min UV irradiation (365 nm), read-out: Sirt2 inhibition PSS [365 nm], percent inhibition

Compound | inhibition at 10 µM [1, 4] | inhibition at 10 µM [1, 5] | inhibition at 100 µM [1, 6] | inhibition at 100 µM [2, 7] | inhibition at 100 µM [2, 8] | Sirt3 inhibition PSS [365 nm] (class) [3, 13] | Sirt3 inhibition Δ (class) ([3]; thermal equilibrium (Δ)) | also measured
NC(=O)c1cncc(/N=N/c2c(O)ccc3ccccc23)c1 [7 c] | – | – | – | – | – | – | – | inhibition at 10 µM ([1]; non-irradiated, read-out: Sirt2 inhibition, percent inhibition relative to controls): 55%; Sirt1 inhibition (class) ([2]; non-irradiated): n.i. (n.i.: no inhibition detected (<30 % @ 100 μM)); inhibition at 10 µM ([3]; non-irradiated, read-out: Sirt3 inhibition, percent inhibition relative to controls): 64%
Cc1cc(/N=N/c2cncc(C(N)=O)c2)cc(C)c1N [7 f] | – | – | – | – | – | – | – | IC50 ([1]; non-irradiated, read-out: Sirt2 inhibition, IC50): 6 µM and 5.8 µM; inhibition at 100 µM ([2]; @ 100 μM, non-irradiated, read-out: Sirt1 inhibition, percent inhibition relative to controls): 47%; IC50 ([3]; non-irradiated, read-out: Sirt3 inhibition, IC50): 9 µM and 9.4 µM
CC(=O)Nc1c(C)cc(/N=N/c2cncc(C(N)=O)c2)cc1C [9 a] | 11% | 17% | 65% | < 30% | < 30% | – | – | inhibition at 100 µM [3, 9]: 52%; inhibition at 100 µM [3, 10]: 68%
CCCC(=O)Nc1c(C)cc(/N=N/c2cncc(C(N)=O)c2)cc1C [9 b] | 4% | 30% | – | < 30% | < 30% | – | – | inhibition at 100 µM [3, 9]: 52%; inhibition at 100 µM [3, 10]: 80%
CCCCCC(=O)Nc1c(C)cc(/N=N/c2cncc(C(N)=O)c2)cc1C [9 c] | 24% | 40% | – | < 30% | < 30% | – | – | inhibition at 10 µM [3, 9]: 3%; inhibition at 10 µM [3, 10]: 20%
CCCCCCCC(=O)Nc1c(C)cc(/N=N/c2cncc(C(N)=O)c2)cc1C [9 d] | 54% | 26% | – | < 30% | < 30% | u.i. | u.i. | increase of Sirt2 inhibition upon 365 nm irradiation (factor) ([1]; PSS 365 nm versus thermal equilibrium): about fivefold; IC50 [1, 11]: 7.9 ± 0.7 µM; IC50 [1, 12]: 44 ± 9.5 µM
CCCCCCCCCC(=O)Nc1c(C)cc(/N=N/c2cncc(C(N)=O)c2)cc1C [9 e] | 78% | 26% | – | < 30% | < 30% | u.i. | u.i. | –
Cc1cc(/N=N/c2cncc(C(N)=O)c2)cc(C)c1NC(=O)c1ccccc1 [9 h] | – | – | 27% | < 30% | < 30% | – | n.i. (n.i.: no inhibition detected (<30 % @ 100 μM)) | inhibition at 100 µM [1, 14]: 52%; inhibition at 100 µM [3, 9]: 32%
Cc1cc(/N=N/c2cncc(C(N)=O)c2)cc(C)c1NC(=O)c1ccc(F)cc1 [9 i] | 15% | 15% | – | < 30% | < 30% | n.i. (n.i.: no inhibition detected (<30 % @ 100 μM)) | n.i. (n.i.: no inhibition detected (<30 % @ 100 μM)) | –
Cc1cc(/N=N/c2cncc(C(N)=O)c2)cc(C)c1NC(=O)C12CC3CC(CC(C3)C1)C2 [9 k] | – | – | 43% | < 30% | < 30% | n.i. (n.i.: no inhibition detected (<30 % @ 100 μM)) | n.i. (n.i.: no inhibition detected (<30 % @ 100 μM)) | inhibition at 100 µM [1, 14]: 71%

Second part, led by results:

inhibition at 10 µM [1, 4] | inhibition at 10 µM [1, 5] | inhibition at 100 µM [1, 6] | inhibition at 100 µM [2, 7] | inhibition at 100 µM [2, 8] | Sirt3 inhibition PSS [365 nm] (class) [3, 13] | Sirt3 inhibition Δ (class) ([3]; thermal equilibrium (Δ)) | Compound | also measured
65% | 46% | – | < 30% | < 30% | u.i. | u.i. | CCCCCCCCCCCC(=O)Nc1c(C)cc(/N=N/c2cncc(C(N)=O)c2)cc1C [9 f] | –
– | – | – | < 30% | < 30% | u.i. | u.i. | CCCCCCCCCCCCCC(=O)Nc1c(C)cc(/N=N/c2cncc(C(N)=O)c2)cc1C [9 g] | IC50 [1, 11]: 0.9 ± 0.2 µM; IC50 [1, 12]: 2.2 ± 0.3 µM
– | – | 80% | < 30% | < 30% | u.i. | u.i. | Cc1cc(/N=N/c2cncc(C(N)=O)c2)cc(C)c1NC(=O)c1ccc(-c2cccs2)cc1 [9 j] | inhibition at 100 µM [1, 14]: 59%
